# Data published in US20250134146A1, “FLAVANONE COMPOUNDS AND THEIR USE AS FLAVOR MODIFIERS” (Firmenich Incorporated, priority 2022, published 2025).
# Columns and labels:
# Human Panelists [1] = assay: sensory evaluation of sweetness of 6% sucrose solution containing Compound at its Threshold Concentration, relative to pure sucrose solutions; type: in vivo; details: 6% sucrose solution plus Compound at its Threshold Concentration, compared with pure sucrose solutions
# Description: (§1) Test samples containing selected experimental compounds were sensory evaluated for sweetness intensity relative to 1.5% sucrose solution by a trained sensory panel of at least 8 panelists. The highest concentration of a Compound which panelists determined to be less sweet than 1.5% sucrose solution was set as its Threshold Concentration (TC). Next, panelists evaluated the sweetness of 6% sucrose solution containing each Compound at its Threshold Concentration (TC), relative to pure sucrose solutions at varying concentrations. Table 5 summarizes the sensory evaluation data for compounds 101,102, 105, 107 and 122-125, 127, 128.
# Human Panelists [2] = assay: sensory evaluation of sweetness intensity relative to 1.5% sucrose solution (Threshold Concentration); type: in vivo; details: highest concentration judged less sweet than 1.5% sucrose solution, trained sensory panel of at least 8 panelists
# Description: as §1
# T1R sweet taste receptor = biological target: T1, T1R sweet taste receptor (Homo sapiens, UniProt Q7RTX0+Q8TE23); assay: in vitro cell-based assay, cells overexpressing the T1R sweet taste receptor; sweet dose-response curves; details: cells that overexpress the T1R sweet taste receptor; calculated from sweet dose-response curves
# T1 construct: expressed in transfected cells
# T1 sequence (Q8TE23 20-839): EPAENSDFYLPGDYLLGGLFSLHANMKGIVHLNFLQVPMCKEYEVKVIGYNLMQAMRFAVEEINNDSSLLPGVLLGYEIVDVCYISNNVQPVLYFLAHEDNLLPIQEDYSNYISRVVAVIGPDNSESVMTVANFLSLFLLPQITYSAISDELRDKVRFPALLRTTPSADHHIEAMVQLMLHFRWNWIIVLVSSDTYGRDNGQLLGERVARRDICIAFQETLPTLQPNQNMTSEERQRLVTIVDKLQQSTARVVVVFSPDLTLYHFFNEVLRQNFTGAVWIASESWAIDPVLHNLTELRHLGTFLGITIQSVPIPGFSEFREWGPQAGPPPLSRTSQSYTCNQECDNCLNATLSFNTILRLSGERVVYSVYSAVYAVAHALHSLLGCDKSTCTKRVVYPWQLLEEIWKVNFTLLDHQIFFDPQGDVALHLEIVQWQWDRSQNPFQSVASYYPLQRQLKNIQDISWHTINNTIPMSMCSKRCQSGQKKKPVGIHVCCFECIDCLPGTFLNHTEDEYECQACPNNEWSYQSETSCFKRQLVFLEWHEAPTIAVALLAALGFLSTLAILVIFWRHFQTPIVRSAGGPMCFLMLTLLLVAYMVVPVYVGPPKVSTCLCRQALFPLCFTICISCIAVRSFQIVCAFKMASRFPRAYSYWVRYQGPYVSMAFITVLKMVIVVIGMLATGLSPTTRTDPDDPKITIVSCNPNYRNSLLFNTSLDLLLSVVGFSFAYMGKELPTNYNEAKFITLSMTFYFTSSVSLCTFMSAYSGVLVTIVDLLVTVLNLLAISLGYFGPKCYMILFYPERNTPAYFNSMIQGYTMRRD
# T1 sequence (Q7RTX0 21-852): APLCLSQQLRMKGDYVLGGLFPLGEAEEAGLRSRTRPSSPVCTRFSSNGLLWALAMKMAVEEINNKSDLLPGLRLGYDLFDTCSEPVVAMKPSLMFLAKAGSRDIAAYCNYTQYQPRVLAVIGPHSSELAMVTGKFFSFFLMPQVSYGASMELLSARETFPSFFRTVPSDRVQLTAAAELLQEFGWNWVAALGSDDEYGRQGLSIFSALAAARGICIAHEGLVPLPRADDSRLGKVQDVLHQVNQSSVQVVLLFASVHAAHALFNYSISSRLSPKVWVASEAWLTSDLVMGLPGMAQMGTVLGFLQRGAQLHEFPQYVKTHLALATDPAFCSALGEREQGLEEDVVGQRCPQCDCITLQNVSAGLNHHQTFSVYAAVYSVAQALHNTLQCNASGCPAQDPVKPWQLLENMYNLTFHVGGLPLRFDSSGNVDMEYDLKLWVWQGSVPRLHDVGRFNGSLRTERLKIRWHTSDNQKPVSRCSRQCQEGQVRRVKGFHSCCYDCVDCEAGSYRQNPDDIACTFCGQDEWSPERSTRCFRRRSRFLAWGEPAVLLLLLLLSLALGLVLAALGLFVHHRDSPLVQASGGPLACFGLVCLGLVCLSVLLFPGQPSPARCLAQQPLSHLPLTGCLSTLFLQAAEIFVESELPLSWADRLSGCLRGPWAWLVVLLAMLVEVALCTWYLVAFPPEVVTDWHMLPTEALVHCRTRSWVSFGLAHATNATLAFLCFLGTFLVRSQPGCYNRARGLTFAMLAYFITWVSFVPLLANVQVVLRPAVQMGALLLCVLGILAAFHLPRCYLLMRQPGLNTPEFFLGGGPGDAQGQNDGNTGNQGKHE
# Protocol: Each of Compounds 101-107, 113, and 117-129 was either synthesized or separated from the corresponding synthetic racemate. Thereafter, the compounds were tested in an in vitro cell-based assay having cells that overexpress the T1R sweet taste receptor. The sweet dose-response curves were recorded and the EC50 was calculated. Table 4 sets forth the calculated EC50 values for the compounds tested.
Structure (SMILES),Sucrose concentration of equal sweetness to (6% sucrose + Compound at its TC) (Human Panelists [1]),Threshold Concentration (TC) - less sweet than 1.5% sucrose (Human Panelists [2]),Threshold Concentration (TC) - less sweet than 1.5% sucrose (Human Panelists [2]; value in brackets),EC50 (T1R sweet taste receptor)
"CO[C@@H]1C(=O)c2c(O)cc(O)cc2O[C@H]1c1ccc(O)cc1 (racemic) [Compound 101, (trans)-5,7-dihydroxy-2-(4-hydroxyphenyl)-3-methoxychroman-4-one]",≥7.5%,11 ppm,36 µM,–
"COc1ccc([C@@H]2Oc3cc(O)cc(O)c3C(=O)[C@H]2OC)cc1O (racemic) [Compound 102, (trans)-5,7-dihydroxy-2-(3-hydroxy-4-methoxyphenyl)-3-methoxychroman-4-one]",≥7.5%,4 ppm,12 µM,1 µM
"COc1ccc([C@@H]2Oc3cccc(O)c3C(=O)[C@H]2OC)cc1O (racemic) [Compound 105, (trans)-5-hydroxy-2-(3-hydroxy-4-methoxyphenyl)-3-methoxychroman-4-one]",≥7.5%,1.5 ppm,4.8 µM,0.1 µM
"COc1ccc([C@@H]2Oc3cc(O)ccc3C(=O)[C@H]2OC)cc1O (racemic) [Compound 107, (trans)-7-hydroxy-2-(3-hydroxy-4-methoxyphenyl)-3-methoxychroman-4-one]",≥7.5%,11 ppm,35 µM,7 µM
"CO[C@@H]1C(=O)c2ccc(O)cc2O[C@H]1c1ccc(O)cc1 (relative stereo) [Compound 106, (trans)-7-hydroxy-2-(4-hydroxyphenyl)-3-methoxychroman-4-one]",–,–,–,92 µM
"COc1cc(O)c2c(c1)O[C@@H](c1ccc(OC)c(O)c1)[C@H](OC)C2=O (relative stereo) [Compound 113, (trans)-5-hydroxy-2-(3-hydroxy-4-methoxyphenyl)-3,7-dimethoxychroman-4-one]",–,–,–,25 µM
"CCO[C@@H]1C(=O)c2c(O)cc(O)cc2O[C@H]1c1ccc(OC)c(O)c1 (relative stereo) [Compound 117, (trans)-5,7-dihydroxy-2-(3-hydroxy-4-methoxyphenyl)-3-ethoxychroman-4-one]",–,–,–,1 µM
"CCO[C@@H]1C(=O)c2c(O)cc(O)cc2O[C@H]1c1ccc(O)cc1 (relative stereo) [Compound 118, (trans)-5,7-dihydroxy-2-(4-hydroxyphenyl)-3-ethoxychroman-4-one]",–,–,–,30 µM
"CCO[C@@H]1C(=O)c2c(O)cccc2O[C@H]1c1ccc(OC)c(O)c1 (relative stereo) [Compound 119, (trans)-5-hydroxy-2-(3-hydroxy-4-methoxyphenyl)-3-ethoxychroman-4-one]",–,–,–,0.4 µM
"CO[C@@H]1C(=O)c2c(O)cc(O)cc2O[C@H]1c1cc(O)c(O)c(O)c1 (relative stereo) [Compound 121, (trans)-2-(3,4,5-trihydroxyphenyl)-5,7-dihydroxy-3-methoxychroman-4-one]",–,–,–,180 µM
"CO[C@@H]1C(=O)c2c(O)cc(O)cc2O[C@H]1c1ccc(O)cc1 (relative stereo) [Compound 125, (−)-(trans)-5,7-dihydroxy-2-(4-hydroxyphenyl)-3-methoxychroman-4-one]",–,–,–,> 100 µM
"COc1ccc([C@@H]2Oc3cccc(O)c3C(=O)[C@H]2OC)cc1O (relative stereo) [Compound 127, (−)-(trans)-5-hydroxy-2-(3-hydroxy-4-methoxyphenyl)-3-methoxychroman-4-one]",–,–,–,1 µM
"COc1ccc([C@@H]2Oc3cc(O)ccc3C(=O)[C@H]2OC)cc1O (relative stereo) [Compound 129, (−)-(trans)-7-hydroxy-2-(3-hydroxy-4-methoxyphenyl)-3-methoxychroman-4-one]",–,–,–,> 200 µM
"COc1ccc([C@H]2Oc3cc(O)cc(O)c3C(=O)[C@@H]2OC)cc1O (single isomer, unassigned) [Compound 122, (+)-(trans)-5,7-dihydroxy-2-(3-hydroxy-4-methoxyphenyl)-3-methoxychroman-4-one]","≥8.0%,",2.5 ppm,7.5 µM,0.7 µM
"CO[C@H]1C(=O)c2c(O)cc(O)cc2O[C@@H]1c1ccc(O)cc1 (stereo in doubt) [Compound 124, (+)-(trans)-5,7-dihydroxy-2-(4-hydroxyphenyl)-3-methoxychroman-4-one]",≥8.0%,5 ppm,16 µM,10 µM
"COc1ccc([C@H]2Oc3cccc(O)c3C(=O)[C@@H]2OC)cc1O (stereo in doubt) [Compound 126, (+)-(trans)-5-hydroxy-2-(3-hydroxy-4-methoxyphenyl)-3-methoxychroman-4-one]",–,–,–,0.03 µM
"COc1ccc([C@H]2Oc3cc(O)ccc3C(=O)[C@@H]2OC)cc1O (stereo in doubt) [Compound 128, (+)-(trans)-7-hydroxy-2-(3-hydroxy-4-methoxyphenyl)-3-methoxychroman-4-one]",≥8.0%,5 ppm,16 µM,9 µM
"COC1C(=O)c2c(O)cccc2OC1c1ccc(O)cc1 (stereo not drawn) [Compound 104, (trans)-5-hydroxy-2-(4-hydroxyphenyl)-3-methoxychroman-4-one]",–,–,–,4 µM
"CCOC1C(=O)c2ccc(O)cc2OC1c1ccc(OC)c(O)c1 (stereo not drawn) [Compound 120, (tans)-7-hydroxy-2-(3-hydroxy-4-methoxyphenyl)-3-ethoxychroman-4-one]",–,–,–,8 µM
